# Reference: US11116760B2 (Gilead Sciences, Inc., priority 2018, dated 2021)
# Molecular target: α4β7 integrin (Homo sapiens (Human), UniProt P13612+P26010)
# Assay: α4β7 Integrin Cell Capture Assay
# Format: cell-based
# Details: RPMI8866 cells captured on MadCAM-1 extracellular domain-coated plate
# Chain of α4β7 integrin (P13612 34-1032): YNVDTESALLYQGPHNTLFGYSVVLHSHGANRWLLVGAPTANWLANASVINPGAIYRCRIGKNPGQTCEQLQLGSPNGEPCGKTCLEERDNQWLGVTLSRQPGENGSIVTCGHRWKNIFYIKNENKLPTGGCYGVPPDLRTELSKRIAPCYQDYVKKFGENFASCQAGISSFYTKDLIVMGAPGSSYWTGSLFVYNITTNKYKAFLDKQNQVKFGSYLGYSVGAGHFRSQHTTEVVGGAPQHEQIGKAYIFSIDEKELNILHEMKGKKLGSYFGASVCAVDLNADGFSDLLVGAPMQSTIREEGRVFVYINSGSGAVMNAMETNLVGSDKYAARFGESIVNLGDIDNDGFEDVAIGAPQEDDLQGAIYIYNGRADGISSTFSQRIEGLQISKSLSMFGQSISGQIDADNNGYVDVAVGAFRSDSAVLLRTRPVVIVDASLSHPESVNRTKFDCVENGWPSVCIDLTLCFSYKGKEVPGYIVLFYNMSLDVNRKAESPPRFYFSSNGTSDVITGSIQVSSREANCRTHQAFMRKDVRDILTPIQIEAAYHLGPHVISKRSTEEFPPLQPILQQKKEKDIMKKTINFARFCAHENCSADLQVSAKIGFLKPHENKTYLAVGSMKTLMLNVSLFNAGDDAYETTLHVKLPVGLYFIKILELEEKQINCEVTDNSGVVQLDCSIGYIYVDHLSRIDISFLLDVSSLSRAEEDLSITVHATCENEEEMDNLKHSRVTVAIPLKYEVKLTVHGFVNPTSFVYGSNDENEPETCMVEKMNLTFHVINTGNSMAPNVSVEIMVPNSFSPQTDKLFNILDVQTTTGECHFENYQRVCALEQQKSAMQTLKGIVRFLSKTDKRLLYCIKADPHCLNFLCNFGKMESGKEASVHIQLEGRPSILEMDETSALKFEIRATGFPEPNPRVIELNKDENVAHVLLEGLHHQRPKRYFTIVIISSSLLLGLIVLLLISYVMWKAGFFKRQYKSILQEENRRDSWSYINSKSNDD
# Chain of α4β7 integrin (P26010 20-798): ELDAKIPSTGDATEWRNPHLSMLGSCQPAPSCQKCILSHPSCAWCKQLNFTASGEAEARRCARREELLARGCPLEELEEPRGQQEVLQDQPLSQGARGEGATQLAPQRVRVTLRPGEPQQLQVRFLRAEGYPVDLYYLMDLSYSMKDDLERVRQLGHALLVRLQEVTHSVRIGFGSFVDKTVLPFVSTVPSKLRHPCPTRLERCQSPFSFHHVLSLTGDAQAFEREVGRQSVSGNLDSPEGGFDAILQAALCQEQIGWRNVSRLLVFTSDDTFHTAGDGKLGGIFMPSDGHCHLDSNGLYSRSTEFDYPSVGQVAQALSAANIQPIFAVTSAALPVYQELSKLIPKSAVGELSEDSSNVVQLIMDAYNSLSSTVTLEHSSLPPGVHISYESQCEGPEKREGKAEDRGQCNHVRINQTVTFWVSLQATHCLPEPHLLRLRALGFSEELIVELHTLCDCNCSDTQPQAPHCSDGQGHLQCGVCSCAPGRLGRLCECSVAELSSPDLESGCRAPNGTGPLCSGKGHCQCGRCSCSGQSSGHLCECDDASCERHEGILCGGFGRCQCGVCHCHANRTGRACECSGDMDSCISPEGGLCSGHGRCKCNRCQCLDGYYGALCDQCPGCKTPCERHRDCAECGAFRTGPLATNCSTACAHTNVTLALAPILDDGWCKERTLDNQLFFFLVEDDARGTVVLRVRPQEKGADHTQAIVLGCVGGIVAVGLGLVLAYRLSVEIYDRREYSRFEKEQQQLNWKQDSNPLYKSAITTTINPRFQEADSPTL
row,EC50,Structure (SMILES)
1,0.161 nM,Cc1cc(N2CCOC[C@@H]2C(F)(F)F)cc(F)c1C(=O)N[C@@H](Cc1ccc(-c2ccc(C)n(C)c2=O)c2ncccc12)C(=O)O [Example 444]
2,0.103 nM,Cc1cc(N2CCOC[C@@H]2C(F)(F)F)cc(F)c1C(=O)N[C@@H](Cc1ccc(-n2c(=O)c3cnccc3n(C)c2=O)c2ncccc12)C(=O)O [Example 434]
3,1.02 nM,Cc1cc(N2CCOC[C@@H]2C(F)(F)F)cc(F)c1C(=O)N[C@@H](Cc1ccc(-c2cc(N(C)C)c(C)n(C)c2=O)c2ncccc12)C(=O)O [Example 450]
4,0.291 nM,Cn1c2c(cc(-c3ccc(C[C@H](NC(=O)c4c(F)cc(N5CCOC[C@@H]5C(F)(F)F)cc4F)C(=O)O)c4cccnc34)c1=O)CNCC2 [Example 438]
5,0.15 nM,Cc1cc(N2CCOC[C@@H]2C(F)(F)F)cc(F)c1C(=O)N[C@@H](Cc1ccc(-c2c(C)nc(C)n(C)c2=O)c2ncccc12)C(=O)O [Example 460]
6,0.048 nM,Cn1c(=O)n(-c2ccc(C[C@H](NC(=O)c3c(F)cc(N4CCOC[C@@H]4C(F)(F)F)cc3Cl)C(=O)O)c3cccnc23)c(=O)c2ccncc21 [Example 414]
7,0.126 nM,Cc1cc(N2CCOC[C@@H]2C(F)(F)F)cc(F)c1C(=O)N[C@@H](Cc1ccc(-n2c(=O)c3cc(N(C)C)ncc3n(C)c2=O)c2ncccc12)C(=O)O [Example 416]
8,0.196 nM,Cn1c(=O)n(-c2ccc(C[C@H](NC(=O)c3c(F)cc(N4CCOC[C@@H]4C(F)(F)F)cc3F)C(=O)O)c3cccnc23)c(=O)c2cnccc21 [Example 473]
9,0.11 nM,Cc1cc(N2CCOC[C@@H]2C(F)(F)F)cc(F)c1C(=O)N[C@@H](Cc1ccc(-n2c(=O)c3cccnc3n(C)c2=O)c2ncccc12)C(=O)O [Example 432]
10,0.524 nM,Cc1cc(-c2nccn2CC(F)(F)F)cc(F)c1C(=O)N[C@@H](Cc1ccc(-c2c(C(F)(F)F)cc(C)n(C)c2=O)c2ncccc12)C(=O)O [Example 435]

# Same assay, conditions: Table 1; capture of α4β7 expressing RPM18866 cells on MadCAM-1 extracellular domain-coated plate
row,EC50,Structure (SMILES)
1,26.1 nM,"N#Cc1ccc(-c2ccc(C[C@H](NC(=O)c3c(F)cc(N4CCOCC4)cc3F)C(=O)O)c3cccnc23)c(Cl)c1 [Example 79, (S)-3-(8-(2-chloro-4-cyanophenyl)quinolin-5-yl)-2-(2,6-difluoro-4-morpholinobenzamido)propanoic acid]"
2,15 nM,"C[C@@H](N(C)c1cc(F)c(C(=O)N[C@@H](Cc2ccc(-c3ccc(C#N)cc3Cl)c3ncccc23)C(=O)O)c(F)c1)C(F)(F)F [Example 87, (S)-3-(8-(2-chloro-4-cyanophenyl)quinolin-5-yl)-2-(2,6-difluoro-4-(methyl((R)-1,1,1-trifluoropropan-2-yl)amino)benzamido)propanoic acid]"
3,0.2 nM,"CC[C@@H](Nc1cc(F)c(C(=O)N[C@@H](Cc2ccc(-c3c(OC)c4ccccc4n(C)c3=O)c3ncccc23)C(=O)O)c(F)c1)C(F)(F)F [Example 122, (S)-2-(2,6-difluoro-4-(((R)-1,1,1-trifluorobutan-2-yl)amino)benzamido)-3-(4-methoxy-1-methyl-2-oxo-1,2-dihydro-[3,8′-biquinolin]-5′-yl)propanoic acid]"
4,0.3 nM,"CC[C@@H](Nc1cc(F)c(C(=O)N[C@@H](Cc2ccc(-c3cc4ccncc4n(C)c3=O)c3ncccc23)C(=O)O)c(F)c1)C(F)(F)F [Example 110, (S)-2-(2,6-difluoro-4-(((R)-1,1,1-trifluorobutan-2-yl)amino)benzamido)-3-(8-(1-methyl-2-oxo-1,2-dihydro-1,7-naphthyridin-3-yl)quinolin-5-yl)propanoic acid]"
5,4.5 nM,"COc1cc(F)cc(C(F)(F)F)c1-c1ccc(C[C@H](NC(=O)c2c(F)cccc2F)C(=O)O)c2cccnc12 [Example 6, (2S)-2-(2,6-difluorobenzamido)-3-(8-(4-fluoro-2-methoxy-6-(trifluoromethyl)phenyl)quinolin-5-yl)propanoic acid]"
6,3.7 nM,"Cn1c(=O)c(-c2ccc(C[C@H](NC(=O)c3c(F)cccc3F)C(=O)O)c3cccnc23)cc2ccccc21 [Example 14, (S)-2-(2,6-difluorobenzamido)-3-(1-methyl-2-oxo-1,2-dihydro-[3,8′-biquinolin]-5′-yl)propanoic acid]"
7,0.6 nM,"CC[C@@H](Nc1cc(F)c(C(=O)N[C@@H](Cc2ccc(-c3c(C(F)(F)F)c4c(n(C)c3=O)CCC4)c3ncccc23)C(=O)O)c(F)c1)C(F)(F)F [Example 126, (S)-2-(2,6-difluoro-4-(((R)-1,1,1-trifluorobutan-2-yl)amino)benzamido)-3-(8-(1-methyl-2-oxo-4-(trifluoromethyl)-2,5,6,7-tetrahydro-1H-cyclopenta[b]pyridin-3-yl)quinolin-5-yl)propanoic acid]"
8,90.7 nM,"N#Cc1ccc(-c2ccc(C[C@H](NC(=O)c3c(F)cc(N4CCNC[C@@H]4C(F)(F)F)cc3F)C(=O)O)c3cccnc23)c(Cl)c1 [Example 77, (S)-3-(8-(2-chloro-4-cyanophenyl)quinolin-5-yl)-2-(2,6-difluoro-4-((R)-2-(trifluoromethyl)piperazin-1-yl)benzamido)propanoic acid]"

row,Structure (SMILES),EC50
1,"Cc1cc(C)c(-c2ccc(C[C@H](NC(=O)c3c(F)cccc3F)C(=O)O)c3cccnc23)nc1C [Example 11, (S)-2-(2,6-difluorobenzamido)-3-(8-(3,5,6-trimethylpyridin-2-yl)quinolin-5-yl)propanoic acid]",22.9 nM
2,"CCOCc1cc(OC)c(-c2ccc(C[C@H](NC(=O)c3c(F)cccc3F)C(=O)O)c3cc(C(F)(F)F)cnc23)c(OC)c1 [Example 37, (S)-2-(2,6-difluorobenzamido)-3-(8-(4-(ethoxymethyl)-2,6-dimethoxyphenyl)-3-(trifluoromethyl)quinolin-5-yl)propanoic acid]",69.6 nM

# Same assay, conditions: Table 2; capture of α4β7 expressing RPM18866 cells on MadCAM-1 extracellular domain-coated plate
row,EC50,Structure (SMILES)
1,0.9 nM,Cc1cc(C(F)(F)F)c(-c2ccc(C[C@H](NC(=O)c3c(F)cc(N4CCOC[C@@H]4C(F)(F)F)cc3F)C(=O)O)c3ccc(C(F)(F)F)nc23)c(=O)n1C [Example 231]
2,15.3 nM,CC[C@@H](Nc1cc(F)c(C(=O)N[C@@H](Cc2ccc(-c3nc(C)nc(C)c3C)c3ncccc23)C(=O)O)c(F)c1)C(F)(F)F [Example 320]
3,4.1 nM,CC[C@@H](Nc1cc(F)c(C(=O)N[C@@H](Cc2ccc(-c3ccc(F)c4cccnc34)c3ncccc23)C(=O)O)c(F)c1)C(F)(F)F [Example 264]
4,0.4 nM,CC[C@@H](Nc1cc(F)c(C(=O)N[C@@H](Cc2ccc(-c3c(C(F)(F)F)cc(C4CC4)n(C)c3=O)c3ncccc23)C(=O)O)c(F)c1)C(F)(F)F [Example 163]
5,93.7 nM,N#Cc1ccc(-c2ccc(C[C@H](NC(=O)c3c(F)cc(N[C@@H]4CCCCC4(F)F)cc3F)C(=O)O)c3cccnc23)c(Cl)c1 [Example 170]
6,53.5 nM,C[C@H](NC(=O)c1cc(F)c(C(=O)N[C@@H](Cc2ccc(-c3ccc(C#N)cc3Cl)c3ncccc23)C(=O)O)c(F)c1)c1ccccc1 [Example 162]
7,0.6 nM,CCCN(c1cc(F)c(C(=O)N[C@@H](Cc2ccc(-c3c(C(F)(F)F)cc(C)n(C)c3=O)c3ncccc23)C(=O)O)c(F)c1)[C@H](CC)C(F)(F)F [Example 339]
8,0.4 nM,COc1cc(C)n(C)c(=O)c1-c1ccc(C[C@H](NC(=O)c2c(F)cc(N[C@H](C3CC3)C(F)(F)F)cc2F)C(=O)O)c2cccnc12 [Example 166]
9,48.2 nM,CC(=O)Cc1cc(F)c(C(=O)N[C@@H](Cc2ccc(-c3ccc(C#N)cc3Cl)c3ncccc23)C(=O)O)c(F)c1 [Example 221]
10,4.8 nM,CC[C@@H](Nc1cc(F)c(C(=O)N[C@@H](Cc2ccc(-c3nc(C)cc(OC)c3C(F)(F)F)c3ncccc23)C(=O)O)c(F)c1)C(F)(F)F [Example 275]
11,1.5 nM,CCOCc1cc(OC)c(-c2ccc(C[C@H](NC(=O)c3c(F)cc(N[C@H](CC)C(F)(F)F)cc3F)C(=O)O)c3cccnc23)c(OC)c1 [Example 201]
12,88.6 nM,N#Cc1ccc(-c2ccc(C[C@H](NC(=O)c3c(F)cc(NC4(C(F)(F)F)CCC4)cc3F)C(=O)O)c3cccnc23)c(Cl)c1 [Example 164]
13,1.1 nM,Cc1cc(C(F)(F)F)c(-c2ccc(C[C@H](NC(=O)c3c(F)cc(N4CCO[C@@H](C)[C@H]4C(F)(F)F)cc3F)C(=O)O)c3cccnc23)c(=O)n1C [Example 227]
14,0.3 nM,Cc1cc(N2CCOC[C@@H]2C(F)(F)F)cc(Cl)c1C(=O)N[C@@H](Cc1ccc(-c2c(C(F)(F)F)cc(C)n(C)c2=O)c2ncccc12)C(=O)O [Example 160]
15,14.3 nM,Cc1nc(-c2ccc(C[C@H](NC(=O)c3c(F)cccc3F)C(=O)O)c3cccnc23)c(C(F)(F)F)c2ccccc12 [Example 318]
16,48.3 nM,N#Cc1ccc(-c2ccc(C[C@H](NC(=O)c3c(F)cccc3OC(F)F)C(=O)O)c3cccnc23)c(Cl)c1 [Example 222]
17,28 nM,O=C(N[C@@H](Cc1ccc(-c2cc(F)c(F)cc2OC2CCC2)c2ncccc12)C(=O)O)c1c(F)cccc1F [Example 177]
18,1.9 nM,CC[C@@H](Nc1cc(F)c(C(=O)N[C@@H](Cc2ccc(-c3cc(C(F)(F)F)cn(C)c3=O)c3ncccc23)C(=O)O)c(F)c1)C(F)(F)F [Example 210]
19,3 nM,Cc1cc(C(F)(F)F)c(-c2ccc(C[C@H](NC(=O)c3c(F)cc(N4C[C@@H](C)OC[C@H]4C)cc3F)C(=O)O)c3cccnc23)c(=O)n1C [Example 249]
20,0.3 nM,Cc1c(Cl)cc(-c2ccc(C[C@H](NC(=O)c3c(F)cc(N4CCOC[C@@H]4C(F)(F)F)cc3F)C(=O)O)c3cccnc23)c(=O)n1C [Example 161]
21,60.5 nM,N#Cc1ccc(-c2ccc(C[C@H](NC(=O)c3c(F)cc(NC4(C(F)(F)F)CC4)cc3F)C(=O)O)c3cccnc23)c(Cl)c1 [Example 229]
22,63.4 nM,N#Cc1ccc(-c2ccc(C[C@H](NC(=O)c3c(F)cc(C(=O)NC4CC4)cc3F)C(=O)O)c3cccnc23)c(Cl)c1 [Example 197]
23,4.4 nM,CC[C@@H](Nc1cc(F)c(C(=O)N[C@@H](Cc2ccc(-c3c(C(F)(F)F)cc(C)n(C)c3=O)c3nc(C(F)(F)F)ccc23)C(=O)O)c(F)c1)C(F)(F)F [Example 269]
24,26.1 nM,O=C(N[C@@H](Cc1ccc(Nc2nccc3ccncc23)c2ncccc12)C(=O)O)c1c(Cl)cccc1Cl [Example 336]
